Source: patent US20230159436A1, “APPLICATIONS OF AMIDE ANALOGS OF TRITERPENES IN CURES OF CANCER AND OTHER DISEASES” (Pacific Arrow Limited, priority 2021, published 2023)
≈ marks a conversion by molar mass, not a printed value.

Test system: ovarian cancer cells
Test: Inhibiting growth of ovarian cancer cells
Type: cell-based

**Q.** `C/C=C(/C)C(=O)O[C@@H]1[C@H](C)CC2C3=CCC4[C@@]5(C)CC[C@H](O[C@@H]6OC(C(=O)O)[C@@H](O)C(O[C@@H]7O[C@@H](CO)C(O)C7O)C6O[C@@H]6OC(CO)[C@H](O)C(O)C6O)C(C)(C)C5CC[C@@]4(C)[C@]3(C)[C@@H](O)[C@@H](O)[C@@]2(CO)[C@H]1OC(=O)/C(C)=C\C` (stereo partly drawn) [Compound Y, 3-O-[β-D-galactopyranosyl (1→2)]-α-L-arabinofuranosy (1→3)-β-D-glucuronopyranosyl-21,22-O-diangeloyl-3β,15α,16α,21β,22α,28-hexahydroxyolean-12-ene] was tested. Which IC50 did it give?
**A.** The IC50 was roughly 1.5 µg/mL (≈ 1.33 µM).
